Experimental data from publication PMC10381533, “Inhibitory Effects of the Fungal Pigment Rubiginosin C on Hyphal and Biofilm Formation in Candida albicans and Candida auris” (Journal of Fungi, 2023).

Key:
[1] = design: method as in PMID 15921417; settings: OA alone; cited from earlier work
[2] = tested on: human endocervical adenocarcinoma KB-3-1 [ACC 158] cells; settings: cited from earlier work
[3] = tested on: C. auris biofilm; test: Crystal violet biofilm formation assay, C. auris; format: cell-based, Candida auris; settings: for effect on formation of C. auris biofilms: CV assay, 24 h treatment; for inhibition at 2 µg/mL / inhibition at 3.9 µg/mL / inhibition at 7.8 µg/mL / inhibition at 15.6 µg/mL / inhibition at 31.3 µg/mL / inhibition at 62.5 µg/mL / inhibition at 125 µg/mL / inhibition at 250 µg/mL: Candidozyma auris, read-out: inhibition of C. auris biofilm formation compared to solvent control (= 0%)
Method: (§1) The fungal pathogens C. auris [[…]] or C. albicans [DSM 11225] were cultured from stock in 25 mL YPD medium in a 250 mL flask (30 °C, 100 rpm, 18 h). The turbidity of the broth was measured at 280 nm using a spectrophotometer (Nanodrop 2000c, Thermo Fisher Scientific, Waltham, MA, USA) and diluted to match the turbidity of a 0.5 McFarland standard in RPMI 1640 medium (Gibco, New York, NY, USA; Thermo Fisher Scientific), supplemented with […] 3-(N-morpholino)propanesulfonic acid (MOPS, Carl Roth, Karlsruhe, Germany) for C. auris, or 0.05 McFarland standard in RPMI 1640 medium in the case of C. albicans. Subsequently, 150 μL of the fungal dispersion were added into each well of a 96-well microtiter plate (Falcon no. 351172, Thermo Fisher Scientific) and further incubated (37 °C, 150 rpm, 2 h [C. auris] or 90 min [C. albicans]). The supernatant was discarded and the plate was rinsed one time by using a PBS buffer. Afterwards, azaphilones (Rub A, C, W, Z, and Rut A and B) were serially diluted in 150 μL in fresh medium to concentrations of 250–2 μg/mL (Rub C for C. auris: 250–0.02 μg/mL). Methanol (2.5%) was used as a solvent control and both, nystatin (NYS; Thermo Fisher Scientific) and farnesol (FA; Sigma Aldrich, St. Louis, MO, USA) as positive controls (250–2 μg/mL) for C. auris and C. albicans, respectively. Plates were further incubated (37 °C, 150 rpm, 24 h). The supernatant was discarded and biofilms were washed with PBS, stained by adding 150 μL of the crystal violet (CV; Sigma Aldrich) solution (0.1%), and incubated (room temperature, 25 min). Afterwards, the plates were washed twice with PBS buffer. A total of 150 μL ethanol (95%) were applied to dissolve the biofilm-bound CV. The absorbance was measured by a plate reader (Synergy 2, BioTek, Santa Clara, CA, USA) at 570 nm for C. auris or 610 nm for C. albicans. Error bars indicate SD with duplicates in two biological repeats.

[4] = tested on: C. auris [DSM 21092]; test: MIC assay, C. auris; format: cell-based, Candida auris; settings: tested 250–2 µg/mL
Method: (§2) The MICs of rubiginosin- and rutilin-type azaphilones—in detail, Rub A, C, W, Z, and Rut A and B—were determined as described previously using the selected pathogens C. albicans [DSM 11225, DSM 1665], C. albicans CAI-4 HWP1-lacZ [ZK3379] and C. auris [DSM 21092] (see Table S1 for detailed information). All compounds were tested within the concentration range of 250 µg/mL–2 µg/mL for C. albicans [DSM 11225, DSM 1665], C. albicans CAI-4 HWP1-lacZ [ZK3379], C. auris [DSM 21092]. […]
(§3) All compounds were fully dissolved in
(§4) The assay was conducted as a minimum inhibitory concentration (MIC) assay in 96-well round-bottom microtiter plates using the parameters summarized in table S1 and as already described in [2]. Stocks of the test organisms were generated by growing the organisms overnight in 250 mL (Candida albicans [DSM 11225], [DSM 1665], CAI-4 HWP1-lacZ, Candida auris [DSM 21092]) or 50 mL shaking (the rest organisms) flasks filled with 25 mL of the growth medium at 140 rpm (for media and temperatures see table S1). After incubation overnight, the OD of the suspension was measured and adjusted by diluting with the respective growth medium. OD600 nm was adjusted to 0.01 for bacteria and OD600 nm to 0.1 for fungi and 150 μL of the adjusted suspensions were added to all wells of a 96-well microtiter plate (one test organism per plate). Subsequently, additional 130 μL (1 mg/mL tested compounds) or 142.5 μL (10 mg/mL tested compounds ) of suspensions, plus 20 μL (1 mg/mL tested compounds) respectively 7.5 μL (10 mg/mL tested compounds ) of the test compounds were added to first row. C ontrols (one compound/column) were added as well: MeOH were used as solvent control, while different positive controls (reference drugs ) were used for the according test organisms (see table S1). Starting from row A, 150 μL of the suspension were transferred […]
(§5) to the next row, the contents thoroughly mixed, and 150 μL transferred to the following row. The remaining 150 μL after row H were discarded.
(§6) 66.7 μg/mL in row A to 0.52 μg/mL in row H (1 mg/mL tested compounds) or 250 μg/mL in row A to 2 μg/mL in row H (10 mg/mL tested compounds).
(§7) The 96-well microtiter plates were then incubated overnight on a microplate shaker at 800 rpm at 30 or 37 °C (see table S1) and were visually evaluated the next day. The MIC is defined as the lowest concentration where no growth of the test organism was observed. A lower MIC thus corresponds to a higher antimicrobial activity […]
(§8) Table S1: MIC assay experiment parameters.
(§9) Tested organisms Strain No. Growth Incubation Positive control medium temp. [°C ] (reference)
(§10) KB-3-1 (ACC 158) cervix carcinoma as well as L929 (ACC 2) mouse fibroblasts were cultured under standard cell culture conditions (37 °C, 5% CO2, 95% humidified atmosphere). The cells were maintained in high glucose DMEM containing 10% fetal bovine serum and 100 U/mL penicillin and streptomycin (Gibco, Thermo Fisher Scientific, Waltham, USA). Cell lines were serially passaged after trypsinization, using 0.05% trypsin / 0.02% EDTA solution. The cultures were routinely monitored for potential contamination, and only mycoplasma free cultures were used. The test compounds were investigated for their anti-proliferative effect on cell lines, using the 3-(4,5-dimethylthiazol-2-yl)-2,5-diphenyltetrazolium bromide (MTT) based cell viability assay. […]

[5] = tested on: C. albicans CAI-4 HWP1-lacZ [ZK3379]; test: MIC assay, C. albicans CAI-4 HWP1-lacZ; format: cell-based, Candida albicans; settings: tested 250–2 µg/mL
Method: as §2, §3, §4, §5, §6, §7, §8, §9, §10

[6] = tested on: mouse fibroblasts L929 [ACC 2]; settings: cited from earlier work
[7] = tested on: murine fibroblasts (L929) and human endocervical adenocarcinoma cells (KB-3-1); design: method as in doi:10.1002/ejoc.202001661; settings: range over Rub A and Rub Z and over both cell lines; cited from earlier work
[8] = tested on: C. albicans [DSM 1665]; design: method as in doi:10.1002/ejoc.202001661; settings: highest tested concentration 250 µg/mL; cited from earlier work
[9] = tested on: C. albicans [DSM 11225] biofilm; test: Crystal violet biofilm formation assay, C. albicans; format: cell-based, Candida albicans; settings: CV assay, 24 h treatment
Method: as §1, with “Methanol (2.5%) was used as a solvent control and both, nystatin (NYS; Thermo Fisher Scientific) and farnesol (FA; Sigma Aldrich, St. Louis, MO, USA) as positive controls (250–2 μg/mL) for C. auris and C. albicans, respectively. Plates were further incubated (37 °C, 150 rpm, 24 h). The supernatant was discarded and biofilms were washed with PBS, stained by adding 150 μL of the crystal violet (CV; Sigma Aldrich) solution (0.1%), and incubated (room temperature, 25 min). Afterwards, the plates were washed twice with PBS buffer. A total of 150 μL ethanol (95%) were applied to dissolve the biofilm-bound CV.” left out, “Error bars indicate SD with duplicates in two biological repeats.” left out

[10] = tested on: C. albicans [DSM 11225]; test: MIC assay, C. albicans DSM 11225; format: cell-based, Candida albicans; settings: tested 250–2 µg/mL
Method: as §2, §3, §4, §5, §6, §7, §8, §9, §10

For Cc1cc(O)cc(O)c1C(=O)O [OA, orsellinic acid], which cytotoxicity [1] is on record?
Its cytotoxicity is “no cytotoxicity”.

With CC(=O)OC/C=C/C1=CC2=C(CO1)C(=O)[C@@](C)(O)[C@@H](OC(=O)c1c(C)cc(O)cc1O)C2 [Rub A, rubiginosin A] as the compound, how does the IC50 [2] read?
Its IC50 is 5.2 µM.

And the “effect on formation of C. auris biofilms” value [3]?
The value was “did not affect the formation”.

What about the inhibition at 2 µg/mL [3] of the same compound?
The inhibition at 2 µg/mL was under 20%.

And the inhibition at 3.9 µg/mL [3]?
Its inhibition at 3.9 µg/mL is under 20%.

And the inhibition at 7.8 µg/mL [3]?
The inhibition at 7.8 µg/mL was under 20%.

And the inhibition at 15.6 µg/mL [3]?
The inhibition at 15.6 µg/mL was under 20%.

And the inhibition at 31.3 µg/mL [3]?
The inhibition at 31.3 µg/mL was under 20%.

What about the inhibition at 62.5 µg/mL [3] of the same compound?
The inhibition at 62.5 µg/mL was under 20%.

What about the inhibition at 125 µg/mL [3] of the same compound?
The inhibition at 125 µg/mL was under 20%.

And the inhibition at 250 µg/mL [3]?
The inhibition at 250 µg/mL was under 20%.

What about the MIC [4] of the same compound?
Its MIC is “no antimicrobial activity”.

What about the MIC [5] of the same compound?
The MIC was “no antimicrobial activity”.

And the IC50 [6]?
The IC50 was 3.2 µM.

What about the IC50 values between [7] of the same compound?
Its IC50 values between is 2.6 to 4.5 µg/mL.

What about the MIC [8] of the same compound?
The MIC was “no antimicrobial activity”.

What about the “concentration above which significant effects on C. albicans biofilm formation start” value [9] of the same compound?
The value was “above 31.3 µg/mL”.

What about the MIC [10] of the same compound?
Its MIC is “no antimicrobial activity”.

What does the source list for CC(=O)OC/C=C/C1=CC2=C(CO1)C(=O)[C@@](C)(OC(=O)c1c(C)cc(O)cc1O)[C@@H](O)C2 [Rub Z, rubiginosin Z]?
IC50 [2]: 5.2 µM; effect on formation of C. auris biofilms [3]: did not affect the formation; inhibition at 2 µg/mL [3]: < 20%; inhibition at 3.9 µg/mL [3]: < 20%; inhibition at 7.8 µg/mL [3]: < 20%; inhibition at 15.6 µg/mL [3]: < 20%; inhibition at 31.3 µg/mL [3]: < 20%; inhibition at 62.5 µg/mL [3]: < 20%; inhibition at 125 µg/mL [3]: < 20%; inhibition at 250 µg/mL [3]: < 20%; MIC [4]: no antimicrobial activity; MIC [5]: no antimicrobial activity; IC50 [6]: 4.7 µM; IC50 values between [7]: 2.6 to 4.5 µg/mL; MIC [8]: no antimicrobial activity; MIC [10]: no antimicrobial activity
